Reference: the NIST ThermoML archive (doi:10.1021/acs.jced.8b01097)
± gives the expanded uncertainty stated by the source.

Experiments:
[1] = xn = mol fraction of the nth substance listed; settings: 85 kPa, Liquid; for viscosity: Concentric cylinders viscometry; for mass density: Vibrating tube method
[2] = 85 kPa, Liquid; for viscosity: Concentric cylinders viscometry; for mass density: Vibrating tube method

SMILES	viscosity ([2]; 293.15 K) [mPa·s]	mass density ([2]; 293.15 K) [kg/m3]	viscosity ([2]; 298.15 K) [mPa·s]	mass density ([2]; 298.15 K) [kg/m3]	viscosity ([2]; 303.15 K) [mPa·s]	mass density ([2]; 303.15 K) [kg/m3]	viscosity ([2]; 308.15 K) [mPa·s]	mass density ([2]; 308.15 K) [kg/m3]	viscosity ([2]; 313.15 K) [mPa·s]	mass density ([2]; 313.15 K) [kg/m3]	viscosity ([2]; 318.15 K) [mPa·s]	mass density ([2]; 318.15 K) [kg/m3]	viscosity ([2]; 323.15 K) [mPa·s]	mass density ([2]; 323.15 K) [kg/m3]	also measured
CCC(C)O (stereo not drawn) [butan-2-ol] + NCCCO	–	–	–	–	–	–	–	–	–	–	–	–	–	–	viscosity ([1]; 293.15 K, x1 = 1): 3.743 ± 0.23 mPa·s; mass density ([1]; 293.15 K, x1 = 1): 806.2 ± 1 kg/m3; viscosity ([1]; 298.15 K, x1 = 1): 3.101 ± 0.19 mPa·s; mass density ([1]; 298.15 K, x1 = 1): 802 ± 1 kg/m3; viscosity ([1]; 303.15 K, x1 = 1): 2.579 ± 0.16 mPa·s; mass density ([1]; 303.15 K, x1 = 1): 797.9 ± 1 kg/m3; viscosity ([1]; 308.15 K, x1 = 1): 2.162 ± 0.13 mPa·s; mass density ([1]; 308.15 K, x1 = 1): 793.6 ± 1 kg/m3; viscosity ([1]; 313.15 K, x1 = 1): 1.828 ± 0.11 mPa·s; mass density ([1]; 313.15 K, x1 = 1): 789.2 ± 1 kg/m3; viscosity ([1]; 318.15 K, x1 = 1): 1.559 ± 0.094 mPa·s; mass density ([1]; 318.15 K, x1 = 1): 784.7 ± 1 kg/m3; viscosity ([1]; 323.15 K, x1 = 1): 1.318 ± 0.08 mPa·s; mass density ([1]; 323.15 K, x1 = 1): 780.2 ± 1 kg/m3
CCC(C)O (stereo not drawn) [butan-2-ol]	3.743 ± 0.23	806.2 ± 1	3.101 ± 0.19	802 ± 1	2.579 ± 0.16	797.9 ± 1	2.162 ± 0.13	793.6 ± 1	1.828 ± 0.11	789.2 ± 1	1.559 ± 0.094	784.7 ± 1	1.318 ± 0.08	780.2 ± 1	–
CCCO [propan-1-ol]	2.215 ± 0.13	803.5 ± 1	1.97 ± 0.12	799.4 ± 1	1.752 ± 0.11	795.4 ± 1	1.563 ± 0.094	791.3 ± 1	1.399 ± 0.085	787.2 ± 1	1.255 ± 0.076	783.1 ± 1	1.129 ± 0.068	778.9 ± 1	–
CC(C)O [propan-2-ol] + CCC(C)O	–	–	–	–	–	–	–	–	–	–	–	–	–	–	viscosity ([1]; 293.15 K, x2 = 0): 2.429 ± 0.15 mPa·s; mass density ([1]; 293.15 K, x2 = 0): 784.9 ± 1 kg/m3; viscosity ([1]; 298.15 K, x2 = 0): 2.095 ± 0.13 mPa·s; mass density ([1]; 298.15 K, x2 = 0): 780.7 ± 1 kg/m3; viscosity ([1]; 303.15 K, x2 = 0): 1.808 ± 0.11 mPa·s; mass density ([1]; 303.15 K, x2 = 0): 776.4 ± 1 kg/m3; viscosity ([1]; 308.15 K, x2 = 0): 1.567 ± 0.094 mPa·s; mass density ([1]; 308.15 K, x2 = 0): 772.1 ± 1 kg/m3; viscosity ([1]; 313.15 K, x2 = 0): 1.366 ± 0.082 mPa·s; mass density ([1]; 313.15 K, x2 = 0): 767.6 ± 1 kg/m3; viscosity ([1]; 318.15 K, x2 = 0): 1.195 ± 0.072 mPa·s; mass density ([1]; 318.15 K, x2 = 0): 763.1 ± 1 kg/m3; viscosity ([1]; 323.15 K, x2 = 0): 1.052 ± 0.064 mPa·s; mass density ([1]; 323.15 K, x2 = 0): 758.5 ± 1 kg/m3
CCCO [propan-1-ol] + CCC(C)O	–	–	–	–	–	–	–	–	–	–	–	–	–	–	viscosity ([1]; 293.15 K, x2 = 0): 2.215 ± 0.13 mPa·s; mass density ([1]; 293.15 K, x2 = 0): 803.5 ± 1 kg/m3; viscosity ([1]; 298.15 K, x2 = 0): 1.97 ± 0.12 mPa·s; mass density ([1]; 298.15 K, x2 = 0): 799.4 ± 1 kg/m3; viscosity ([1]; 303.15 K, x2 = 0): 1.752 ± 0.11 mPa·s; mass density ([1]; 303.15 K, x2 = 0): 795.4 ± 1 kg/m3; viscosity ([1]; 308.15 K, x2 = 0): 1.563 ± 0.094 mPa·s; mass density ([1]; 308.15 K, x2 = 0): 791.3 ± 1 kg/m3; viscosity ([1]; 313.15 K, x2 = 0): 1.399 ± 0.085 mPa·s; mass density ([1]; 313.15 K, x2 = 0): 787.2 ± 1 kg/m3; viscosity ([1]; 318.15 K, x2 = 0): 1.255 ± 0.076 mPa·s; mass density ([1]; 318.15 K, x2 = 0): 783.1 ± 1 kg/m3; viscosity ([1]; 323.15 K, x2 = 0): 1.129 ± 0.068 mPa·s; mass density ([1]; 323.15 K, x2 = 0): 778.9 ± 1 kg/m3
CC(C)O [propan-2-ol]	2.429 ± 0.15	784.9 ± 1	2.095 ± 0.13	780.7 ± 1	1.808 ± 0.11	776.4 ± 1	1.567 ± 0.094	772.1 ± 1	1.366 ± 0.082	767.6 ± 1	1.195 ± 0.072	763.1 ± 1	1.052 ± 0.064	758.5 ± 1	–
NCCCO [3-amino-1-propanol]	37.33 ± 2.3	987.8 ± 1.3	28.59 ± 1.7	984.3 ± 1.2	22.31 ± 1.4	980.3 ± 1.2	17.67 ± 1.1	976.2 ± 1.2	14.21 ± 0.86	972.3 ± 1.2	11.58 ± 0.7	968.5 ± 1.2	9.546 ± 0.58	964.9 ± 1.2	–
